Measurements from PMC12194779, “Synergistic Insecticidal Activity of Plant Volatile Compounds: Impact on Neurotransmission and Detoxification Enzymes in Sitophilus zeamais” (Insects, 2025).
≈ marks a conversion by molar mass, not a printed value. Where “and” joins values, the source holds several entries; their conditions need not be identical. Equal entries are not always repeated. Where two headings read alike, the source gives them in different places.

How the values were obtained:
Sitophilus zeamais [1] = experiment: whole plant or invertebrate; conditions: for EC90: read-out: Fumigant Toxicity LC90 (95% FL)
Procedure: (§1) The insects used in this study were Sitophilus zeamais Motschulsky (Coleoptera: Curculionidae), identified by the Instituto Colombiano Agropecuario (ICA) under report number R3823M0000425. […] The adult insects used in all the experiments were 6 to 10 days post-emergence.
The treated disks were affixed to the inner surface of the screw cap of 22 mL glass vials. […] All treatments were performed in two independent experiments, each with five replicates.
(§2) Mixtures predicted by the RSM were prepared based on mole fractions. […] Four replicates were performed for each treatment and control across two independent experimental runs.
Dose reduction indices (DRIs) were also calculated to estimate how much the dose of each compound in a synergistic combination could be reduced to achieve a 50% effect (Equation (4)). DRIs were interpreted as favorable when >1, neutral at 1, and unfavorable when <1. Values above the log DRI = 0 line indicate favorable dose reductions.(4) (IRD)i=CL50i(fax)i/(1−(fax)i)^1/mi/(D)i

S. zeamais [2] = conditions: previous reports; cited from earlier work
Sitophilus zeamais [3] = format: in vivo; conditions: for Contact Toxicity LD50i (LC-95%): mixtures and their components (Table 3); for Contact Toxicity LD50 (95% FL) / Contact Toxicity LD90 (95% FL): topical, 24 h after exposure
Procedure: as §1
Groups of 10 insects, previously placed in Petri dishes, were immobilized by exposure to low temperatures (0 °C). An initial dose of 50.0 µg per adult was applied topically to the dorsal thorax of each insect using aliquots of 0.20 µL from 0.25 mg/µL solutions in n-hexane. […] All treatments were performed in two independent experiments, each with four replicates. Insect mortality was assessed after 24 h, and mortality percentages were calculated using Abbott’s correction formula (Equation (1)).
as §2
Dose reduction indices (DRIs) were also calculated to estimate how much the dose of each compound in a synergistic combination could be reduced to achieve a 50% effect (Equation (4)). DRIs were interpreted as favorable when >1, neutral at 1, and unfavorable when <1.

[4] = tested on: catalase (CAT) activity in S. zeamais; experiment: CAT activity assay (adapted Sinha) with S. zeamais protein extract; format: biochemical, Sitophilus zeamais; conditions: 120 mg/L
Procedure: (§3) Enzymatic assays were performed in the assay buffer, consisting of 0.1 M potassium phosphate buffer (pH 7.2). The compounds and mixtures evaluated in the in vitro assays were prepared in the same buffer supplemented with 0.5% (v/v) Triton X-100 (Sigma-Aldrich®, Saint Louis, MO, USA).
(§4) A modified version of the method described by Oviedo et al. was used. Adults of S. zeamais (8 g; ~3125 insects) were frozen in liquid nitrogen, homogenized in a 1:10 ratio with assay buffer, and centrifuged at 13,000× g for 60 min at 4 °C. The supernatant was filtered, and 20 mM benzamidine was added. The extracts were stored in 5 mL aliquots at −20 °C. Preliminary assays were performed to quantify the specific activity of AChE (0.02–1.00 U/mL), GST (0.1–0.8 U/mL), and CAT (0.1–25 U/mL), and to optimize assay conditions (enzyme dilution: 1/8 to 1% v/v; substrate concentrations: 2 × km or within assay linearity). Each experiment was performed independently three times, with three technical replicates per experiment.
Sinha’s method was adapted. In Eppendorf tubes, 100 µL of protein extract (24.77 U/mL) was mixed with 100 µL of the compound or mixture (120 mg/L) and incubated at 37 °C for 15 min. Then, 200 µL of H2O2 was added and shaken for 2.5 min. The reaction was stopped by adding 600 µL of K2Cr2O7, followed by incubation at 100 °C for 10 min. A 200 µL aliquot was transferred to a 96-well plate, and absorbance was recorded at 570 nm. Blanks and sodium azide (positive control) were used. The percentage of inhibition was calculated using Equation (5). Differences among treatments were analyzed via ANOVA (α = 0.05) in GraphPad Prism. Each experiment was performed independently three times, with three technical replicates per experiment.

[5] = tested on: glutathione S-transferase (GST) activity in S. zeamais; experiment: GST activity assay (modified Habig) with S. zeamais protein extract; format: biochemical, Sitophilus zeamais; conditions: 120 mg/L
Procedure: as §3, §4
A modified version of Habig’s method was used. The protein extract (50 µL; 0.59 U/mL) was incubated with 50 µL of the compound or mixture (120 mg/L), followed by 50 µL each of CDNB and reduced glutathione (GSH). Kinetic absorbance was measured at 340 nm for 8 min. Blanks (without substrate) and quercetin (positive control) were included. Inhibition (%) was calculated using Equation (5), and treatment differences were evaluated via parametric ANOVA (α = 0.05) in GraphPad Prism 8.0.2 [42, 43]. Each experiment was performed independently three times, with three technical replicates per experiment.(5) % Inhibition=1−Am−AB/AC ×100 where Am is the absorbance of the sample, AB is the absorbance of the blank, and AC is the absorbance of the negative control.

AChE of S. zeamais = experiment: AChE activity assay (modified Ellman) with S. zeamais protein extract; format: biochemical, Sitophilus zeamais; design: key to AChE Effect Inhibitor Type: C: competitive inhibitor; NC: non-competitive inhibitor; conditions: for AChE Effect Inhibitor Type: Lineweaver–Burk; for AChE Effect IC50 ± SD / Ki: S. zeamais protein extract; for Ki: read-out: AChE Effect ki ± SD (inhibitory constant)
Procedure: The compounds and mixtures evaluated in the in vitro assays were prepared in the same buffer supplemented with 0.5% (v/v) Triton X-100 (Sigma-Aldrich®, Saint Louis, MO, USA).
The supernatant was filtered, and 20 mM benzamidine was added. The extracts were stored in 5 mL aliquots at −20 °C. Preliminary assays were performed to quantify the specific activity of AChE (0.02–1.00 U/mL), GST (0.1–0.8 U/mL), and CAT (0.1–25 U/mL), and to optimize assay conditions (enzyme dilution: 1/8 to 1% v/v; substrate concentrations: 2 × km or within assay linearity).
Then, 50 µL of DTNB and 50 µL of ATChI were added. […] Inhibition percentages were calculated using Equation (5).

[6] = design: method as in doi:10.1016/B978-0-12-819092-0.00021-2; conditions: cited from earlier work
S. zeamais [7] = tested on: S. zeamais; design: method as in PMID 21173724, PMID 22236213; conditions: cited from earlier work
[8] = Sitophilus zeamais, in Homo sapiens, 24 h, read-out: Fumigant Toxicity LC50 (95% FL)
[9] = Sitophilus zeamais, in Homo sapiens, 24 h
[10] = Sitophilus zeamais, 24 h, read-out: Fumigant Toxicity LC50i (LC-95%)

## CC1=CCC2CC1C2(C)C (stereo not drawn) [Compound C19, α-Pinene]
Sitophilus zeamais [1]; [8]
  LC50: 110 µg/mL and 810 µM
Sitophilus zeamais [1]; [9]
  EC90: 179 µg/mL and 1.31 mM
S. zeamais [2]
  LC50 in vapor-phase assays without physical barriers: 120 µL/L

## C=CCc1ccc(O)c(OC)c1 [Compound C26, Eugenol]
Sitophilus zeamais [3]
  Contact Toxicity LD50i (LC-95%): 20.90 µg/Adult
  Contact Toxicity LD50 (95% FL): 20.9 (19.22–22.65) µg/Adult
  Contact Toxicity LD90 (95% FL): 30.82 (28.35–34.42) µg/Adult
[4]
  CAT Inhibition λ570 nm (%): 19.9%
[5]
  GST Inhibition λ340 (%): 24.3%

## CC1=CC[C@H](C(C)C)C=C1 [Compound C14, R-(−)-α-Phellandrene]
Sitophilus zeamais [1]; S. zeamais adults, 24 h after exposure
  Fumigant Toxicity LC50 (95% FL): 88.87 (69.70–108.27) mg L^−1
Sitophilus zeamais [1]; read-out: Fumigant Toxicity LC50 (95% FL), S. zeamais adults, 24 h after exposure
  LC50: 652 µM
S. zeamais [2]
  LC50 in vapor-phase assays without physical barriers: 72.7 mg/L (≈ 534 µM)

## CC(C)=C1CC[C@@H](C)CC1=O [Compound C1, R-(+)-Pulegone]
Sitophilus zeamais [1]; [10]
  LC50: 0.58 µg/mL
Sitophilus zeamais [1]; [8]
  LC50: 0.58 µg/mL and 3.81 µM
Sitophilus zeamais [1]; [9]
  EC90: 0.92 µg/mL and 6.07 µM
Sitophilus zeamais [3]
  Contact Toxicity LD50i (LC-95%): 4.85 µg/Adult
  Contact Toxicity LD90 (95% FL): 7.40 (6.79–8.28) µg/Adult
AChE of S. zeamais; 120 mg/L
  AChE inhibition: 33.52%
[4]
  CAT Inhibition λ570 nm (%): 4.3%
[5]
  GST Inhibition λ340 (%): 2.4%
[6]; i.p.
  LD50 (i.p.): 73 mg/kg
[6]; i.v.
  LD50 (i.v.): 80 mg/kg
[6]; oral
  oral LD50: 810 mg/kg

## CC(C)=C1CC[C@H](C)CC1=O [Compound C2, S-(−)-Pulegone]
Sitophilus zeamais [1]; [10]
  LC50: 0.97 µg/mL
Sitophilus zeamais [1]; [8]
  LC50: 0.97 µg/mL and 6.37 µM
Sitophilus zeamais [1]; [9]
  EC90: 1.68 µg/mL and 11.1 µM
Sitophilus zeamais [3]
  Contact Toxicity LD50i (LC-95%): 7.44 µg/Adult
  Contact Toxicity LD90 (95% FL): 9.64 (9.05–10.54) µg/Adult
AChE of S. zeamais
  AChE inhibition type (Lineweaver–Burk plots), in words: competitive inhibition
  AChE inhibition, times higher than the R-enantiomer (C1): 2.3 times
  AChE Effect Inhibitor Type: C
  AChE Effect IC50 ± SD: 36.60 ± 3.29 µg/mL
  Ki: 50.3 ± 0.74 µM
[4]
  CAT Inhibition λ570 nm (%): 2.4%
[5]
  GST Inhibition λ340 (%): 4.3%

## CC1=CC=C(C(C)C)CC1 [Compound C13, α-Terpinene]
Sitophilus zeamais [1]; [8]
  LC50: 60.2 µg/mL and 442 µM
Sitophilus zeamais [1]; [9]
  EC90: 96.2 µg/mL and 706 µM
S. zeamais [2]
  LC50 in vapor-phase assays without physical barriers: 56.2 mg/L (≈ 413 µM)

## CC(C)=CCC[C@@H](C)CC=O [Compound C33, Citronellal]
Sitophilus zeamais [3]
  Contact Toxicity LD50i (LC-95%): 36.94 µg/Adult
  Contact Toxicity LD50 (95% FL): 36.94 (34.60–39.14) µg/Adult
  Contact Toxicity LD90 (95% FL): 50.64 (47.46–55.39) µg/Adult
AChE of S. zeamais
  AChE inhibition type (Lineweaver–Burk plots), in words: competitive inhibition
  AChE Effect Inhibitor Type: C
  AChE Effect IC50 ± SD: 7.72 ± 0.78 µg/mL
  Ki: 199 ± 3.51 µM
[5]
  GST Inhibition λ340 (%): 4.3%
S. zeamais [7]
  Contact LD50 previously reported for 7-day assays: 8.54 µg/adult

## C/C=C/c1ccc(OC)cc1 [Compound C29, trans-Anethol]
Sitophilus zeamais [3]
  Contact Toxicity LD90 (95% FL): 46.08 (41.56–52.95) µg/Adult
AChE of S. zeamais
  AChE inhibition type (Lineweaver–Burk plots), in words: competitive inhibition
  AChE Effect Inhibitor Type: C
  AChE Effect IC50 ± SD: 4.24 ± 0.36 µg/mL
  Ki: 43.6 ± 3.46 µM
AChE of S. zeamais; ratio of IC50
  AChE potency, times more potent than isomer estragole (C11): 6.5 times
[4]
  CAT Inhibition λ570 nm (%): 23.3%
[5]
  GST Inhibition λ340 (%): ~ 17.5% and 17.5%
